In patent US20250170100A1, “MONOACYLGLYCEROL LIPASE INHIBITORS AND USE THEREOF FOR THE TREATMENT OF ANXIETY AND RELATED CONDITIONS” (Psy Therapeutics, Inc., priority 2021, published 2025):
pIC50: −log10 of the molar value. Read-outs that look alike come from different tables or passages of the source. Values belong to the compound of their own block, whether it stands above or below them.

Key:
human recombinant FAAH = human recombinant FAAH (Homo sapiens (Human), UniProt O00519); assay: FAAH counter screen (Fatty Acid Amide Hydrolase Inhibitor Screening Assay Kit); assay type: biochemical
Chain of human recombinant FAAH (O00519 whole entry): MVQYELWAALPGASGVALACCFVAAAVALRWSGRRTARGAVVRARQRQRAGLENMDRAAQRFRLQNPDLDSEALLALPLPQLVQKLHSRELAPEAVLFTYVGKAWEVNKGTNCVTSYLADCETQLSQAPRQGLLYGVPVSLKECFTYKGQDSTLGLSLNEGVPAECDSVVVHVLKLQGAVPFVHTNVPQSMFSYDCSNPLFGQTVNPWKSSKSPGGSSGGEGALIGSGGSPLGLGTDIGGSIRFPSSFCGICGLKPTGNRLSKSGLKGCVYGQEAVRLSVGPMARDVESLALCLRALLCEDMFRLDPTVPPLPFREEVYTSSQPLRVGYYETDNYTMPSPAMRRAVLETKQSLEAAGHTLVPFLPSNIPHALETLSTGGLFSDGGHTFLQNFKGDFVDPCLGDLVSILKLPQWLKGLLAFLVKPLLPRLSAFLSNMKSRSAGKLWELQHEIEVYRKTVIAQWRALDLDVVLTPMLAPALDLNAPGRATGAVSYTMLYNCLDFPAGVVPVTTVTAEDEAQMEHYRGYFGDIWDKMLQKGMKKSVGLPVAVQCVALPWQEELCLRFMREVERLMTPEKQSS
Experimental: MAGL inhibitor compounds were also counter-screened for FAAH inhibition potency using the following assay. Assessment of FAAH inhibition was performed using Fatty Acid Amide Hydrolase Inhibitor Screening Assay Kit (Cayman Item No. 10005196) following manufacture's instruction with some modifications. The kit utilizes human recombinant FAAH and the fluorescent substrate, AMC Arachidonoyl amide (AAMCA). 5 μL of assay buffer (125 mM Tris, pH 9.0, 1 mM EDTA, i.e. ethylenediaminetetraacetic acid) was added to a 384-well black plate (Corning, 3573). Test compounds and control inhibitor JZL-195 (Cayman Chemical, 13668) were tested in 10-concentration IC50 mode with 3-fold serial dilution at a starting concentration of 100 μM and 10 μM, respectively. 300 nL or 30 nL of test compounds were delivered into a 384-well black plate (Corning, 3573) using a Labcyte Echo, followed by addition of 15 μL of FAAH enzyme (Cayman, 700302) in assay buffer. After a 5-minute pre-incubation at room temperature, 10 μL of AAMCA was added in assay buffer to start the reaction. Final concentration of FAAH enzyme is not specified and AAMCA substrate was used at the 20 μM. After these dilutions, the final concentration of the test compounds ranged from 100 μM to 5.08 nM or 10 μM down to 0.508 nM. The reaction was allowed to progress for 60 minutes, while the plate was read on an Envision plate reader at an Ex/Em of 350/460 nm with readings every minute. The data was analyzed in Microsoft Excel, using the slope between 30 and 59 minutes. The average of the no-enzyme wells (background) was subtracted from the data. The background-subtracted slope data was converted to % activity using the average of wells with enzyme and DMSO vehicle. IC50 values were calculated using GraphPad software (Sigmoidal dose response, variable slope equation).
Compounds listed in Table D2 were tested in the FAAH Counterscreen of Example 19

human MAGL [1] = target: T1, human MAGL (Homo sapiens (Human), UniProt Q99685); assay: MAGL inhibition potency assay with 4NPA substrate (methods of Table C); assay type: biochemical
Target sequence in this assay (Q99685 2-303): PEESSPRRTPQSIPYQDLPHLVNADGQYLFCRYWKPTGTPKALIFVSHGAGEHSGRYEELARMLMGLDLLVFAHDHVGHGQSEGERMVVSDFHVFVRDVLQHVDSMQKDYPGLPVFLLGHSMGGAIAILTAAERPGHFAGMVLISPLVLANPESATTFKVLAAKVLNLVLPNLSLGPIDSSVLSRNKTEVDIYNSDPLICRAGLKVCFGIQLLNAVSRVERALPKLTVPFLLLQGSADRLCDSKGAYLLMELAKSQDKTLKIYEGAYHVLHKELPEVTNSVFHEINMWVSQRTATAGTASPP

human MAGL [2] = target: T1, human MAGL; assay: MAGL reversible inhibition assay (washout); assay type: biochemical; conditions: for A: degree to which MAGL enzymatic activity returned following washout: pre-washout compound concentration: 1 μM; for B: % MAGL activity returning after washout: relative to control, immediately following a 30 minute washout
Experimental: The reversible mechanism of MAGL inhibition of a test compound of Formula (I) can be determined. Flag-tagged MAGL enzyme will be immobilized on anti-Flag beads. Immobilized enzyme will be incubated+/−inhibitor at a dose that produces complete inhibition. Colorimetric substrate (4-NPA) will be added and the reaction monitored on a plate reader for 30 minutes to verify complete inhibition. Immobilized enzyme will then be washed thoroughly to remove the inhibitor, and fresh substrate will be added. The reaction will be monitored for an additional 30 minutes; returning enzymatic activity will indicate reversibility of inhibition.
MAGL enzyme was incubated for 30 minutes in the presence of 40× the IC50 concentration of inhibitor. Enzyme+inhibitor mix was then diluted 40-fold so that the final concentration of the inhibitor equaled the IC50 concentration. Substrate was added and the reaction was monitored for 30 minutes.
Target sequence in this assay (Q99685 whole entry): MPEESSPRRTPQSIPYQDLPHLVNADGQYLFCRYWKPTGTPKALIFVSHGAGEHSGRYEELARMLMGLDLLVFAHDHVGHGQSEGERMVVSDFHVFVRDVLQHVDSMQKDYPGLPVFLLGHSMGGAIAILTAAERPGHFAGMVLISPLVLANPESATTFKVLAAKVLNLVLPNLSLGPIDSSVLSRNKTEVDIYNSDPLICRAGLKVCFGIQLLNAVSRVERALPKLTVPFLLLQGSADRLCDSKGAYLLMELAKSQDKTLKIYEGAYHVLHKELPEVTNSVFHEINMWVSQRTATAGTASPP

human MAGL [3] = target: T1, human MAGL; assay: MAGL inhibition potency assay with 4NPA substrate (methods of Table C); assay type: biochemical; conditions: Method 1: Reaction Biology MAGL enzyme, 6 nM; read-out: MAGL Potency (Detection Method)
From the text: Cayman's Monoacylglycerol Lipase Inhibitor Screening Assay provides a method for screening human MAGL inhibitors. MAGL hydrolyzes 4-nitrophenylacetate resulting in a yellow product, 4-nitrophenol, with an absorbance of 405-412 nm. The monoacylglycerol lipase inhibitor screening assay kit from Cayman Chemical was used to measure the MAGL potency for the compounds in Table 3 and Table 4. Cayman's Monoacylglycerol Lipase Inhibitor Screening Assay provides a method for screening human MAGL inhibitors. MAGL hydrolyzes 4-nitrophenylacetate resulting in a yellow product, 4-nitrophenol, with an absorbance of 405-412 nm. MAGL Inhibition was measured by the following assay. Monoacylglycerol Lipase (MAGL) inhibition was measured using recombinant MAGL enzyme (aa 2-303 RBC, internal preparation) and the substrate 4-Nitrophenyl acetate (4NPA) (Sigma-Aldrich, N8130). Hydrolysis of the substrate in the presence of the enzyme was measured by absorbance at 405 nm. 10 μL of assay buffer (10 mM Tris pH 7.5, 1 mM EDTA, 0.9% DMSO) was added to a black 384-well non-binding plate with clear bottom (Greiner, 781906) for each reaction. […] DMSO control wells were included for reference. A 10.8 nM (1.8×) MAGL mix in assay buffer was prepared, with […] added to each reaction well, for a final assay concentration of 6 nM. No enzyme wells received 25 μL of buffer. Plate was incubated at room temperature for 30 minutes. 35 mM solution of 4NPA in methanol was prepared daily. A 4.5×4NPA substrate solution was prepared in assay buffer and 10 μL was added to each reaction well, for a final assay concentration of 0.25 mM. Plate was spun for 1 minute at 1000 rpm before measuring absorbance using a CLARIOstar plate reader (BMG Labtech). A kinetic reading at 405 nm was done every minute for 30 minutes. Data was analyzed using the linear slope of the reaction progress curve and the average of the no-enzyme wells (background) was subtracted from the data. The background-subtracted slope data was converted to % activity using the average of wells with enzyme and DMSO vehicle. IC50s were calculated using GraphPad software (Sigmoidal dose response, variable slope equation). […] Table 5 provides potency measurements of MAGL inhibition measured using the Potency Assay of Example 18 above, with the following modifications described in Table C. [table]
Target sequence in this assay (Q99685 2-303): as the sequence (Q99685 2-303) above

2-AG levels in brain = assay: 2-AG estimation in mouse brain after single intraperitoneal administration of Compound 74; assay type: in vivo, male C57BL/6 mice; conditions: for Mean 2AG Brain Concentration: 0.5 h
Experimental: (§1) This experiment was performed to determine plasma pharmacokinetics and estimate 2-AG levels in male C57BL/6 mice brain following a single intraperitoneal administration of Compound-74 (Dose: 5, 15, 50 and 150 mg/kg). The experiment was repeated at 150 mg/kg on 3 separate test dates to obtain the data shown in FIG. 1A (plasma and brain concentration of Compound 74 30 minutes after IP injection), and on the first and third test dates to obtain the data shown in FIG. 1B (brain concentration of 2-AG30 minutes after IP injection of Compound 74).
(§2) Study Design: A total of thirty male mice were used into the study and divided in to five groups with six mice in each group (n=6 mice/group/treatment design). Animals in Group 1 to Group 4 were administered intraperitoneally with Compound 74 solution formulation at 5, 15, 50 and 150 mg/kg dose, respectively. Animals in Group 5 were administered intraperitoneally with vehicle at 2 mL/kg dose. Blood and brain samples were collected at 0.5 h post dose. Mice were euthanized by cervical dislocation and brain samples were dissected rapidly and snap frozen in liquid nitrogen, weighed and homogenized in 2 mL of acetonitrile containing 2-AGd5. Blood samples were centrifuged at 4000 rpm for 10 minutes at 4° C. Plasma was harvested and separated in pre-labeled tubes. All samples were stored below −70° C. until bioanalysis.
(§3) Analysis: Brain samples were processed for 2-AG estimation. 2-AG levels were the detected values. Plasma concentrations were determined by fit for purpose LC-MS/MS method. LLOQ: 5.09 ng/mL (Plasma and brain)

[4] = Plasma and brain concentrations after single intraperitoneal administration of Compound 74; assay type: in vivo, male C57BL/6 mice; conditions: male, C57BL/6, mouse; for Kp at 0.5 h: brain/plasma, read-out: Brain Plama Ratio (Kp) range
Experimental: as §1, §2, §3

[5] = Method A: starting concentration of 100 μM
[6] = Method 2: Cayman Chemical MAGL enzyme, 10 nM, read-out: MAGL Potency (Detection Method)

pIC50 (human recombinant FAAH; [5]): < 5.00
pIC50 (human MAGL [1]; Method 2: Cayman Chemical MAGL enzyme, 10 nM, read-out: Potency (MAGL inhibition)): < 5.00
Compound: COc1ccc(F)c(C(=O)N2CC3(CC(c4cc(C)nn4-c4ccccc4C)C3)C2)c1 [Compound 123, (2-fluoro-5-methoxyphenyl)(6-(3-methyl-1-(o-tolyl)-1H-pyrazol-5-yl)-2-azaspiro[3.3]heptan-2-yl)methanone]

pIC50 (human recombinant FAAH; Method B: starting concentration of 10 μM): < 5.00
A: degree to which MAGL enzymatic activity returned following washout (human MAGL [2]): 47
Compound: O=C(c1cc(O)ccc1F)N1CC2(CC(n3cc(C4CC4)c(-c4ccccc4F)n3)C2)C1 [Compound 493]

Compound: O=C(Oc1ccc([N+](=O)[O-])cc1)N1CCC(C(O)(c2ccc3c(c2)OCO3)c2ccc3c(c2)OCO3)CC1 [JZL-184, reference compound]
A: degree to which MAGL enzymatic activity returned following washout (human MAGL [2]): complete lack of return of MAGL enzymatic activity
B: % MAGL activity returning after washout (human MAGL [2]): <1%

Compound: Cc1cc(C2CC3(C2)CN(C(=O)c2cc(O)ccc2F)C3)n(-c2ccccc2C)n1 [Compound 74, (2-fluoro-5-hydroxyphenyl) (6-(3-methyl-1-(o-tolyl)-1H-pyrazol-5-yl)-2-azaspiro[3.3]heptan-2-yl) methanone]
pIC50 (human MAGL [3]): > 7.30
A: degree to which MAGL enzymatic activity returned following washout (human MAGL [2]): 162
B: % MAGL activity returning after washout (human MAGL [2]): >50%
Mean 2AG Brain Concentration (2-AG levels in brain; IP 5 mg/kg): 13.13 nmol/g
Mean 2AG Brain Concentration (2-AG levels in brain; IP 15 mg/kg): 13.46 nmol/g
Mean 2AG Brain Concentration (2-AG levels in brain; IP 50 mg/kg): 42.35 nmol/g
Mean 2AG Brain Concentration (2-AG levels in brain; IP 150 mg/kg): 120.02 nmol/g
levels of 2-AG compared to baseline (vehicle treatment) (2-AG levels in brain; IP 5 and 15 mg/kg dose): elevated slightly
levels of 2-AG compared to baseline (vehicle treatment) (2-AG levels in brain; IP 50 and 150 mg/kg dose groups): significant increase
concentration at 0.5 h ([4]; brain, IP 5 mg/kg, read-out: Brain concentration range): 16 to 19 ng/g
concentration at 0.5 h ([4]; brain, IP 15 mg/kg, read-out: Brain concentration range): 25 to 67 ng/g
concentration at 0.5 h ([4]; brain, IP 50 mg/kg, read-out: Brain concentration range): 34 to 1250 ng/g
concentration at 0.5 h ([4]; brain, IP 150 mg/kg, read-out: Brain concentration range): 2410 to 12100 ng/g
Kp at 0.5 h ([4]; IP 5 mg/kg): 0.51 to 0.68
Kp at 0.5 h ([4]; IP 15 mg/kg): 0.16 to 0.44
Kp at 0.5 h ([4]; IP 50 mg/kg): 0.06 to 0.08
Kp at 0.5 h ([4]; IP 150 mg/kg): 0.07 to 0.2
concentration at 0.5 h ([4]; plasma, IP 5 mg/kg, read-out: Plasma concentration range): 12 to 186 ng/mL
concentration at 0.5 h ([4]; plasma, IP 15 mg/kg, read-out: Plasma concentration range): 70 to 414 ng/mL
concentration at 0.5 h ([4]; plasma, IP 50 mg/kg, read-out: Plasma concentration range): 447 to 14900 ng/mL
concentration at 0.5 h ([4]; plasma, IP 150 mg/kg, read-out: Plasma concentration range): 34900 to 70300 ng/mL
pIC50 (human MAGL [1]; [6]): > 7.30
pIC50 (human MAGL [1]; Method 3: Reaction Biology MAGL enzyme, 10 nM, read-out: MAGL Potency (Detection Method)): > 7.30
pIC50 (human MAGL [1]; Method 4: Cayman Chemical MAGL enzyme, 15 nM, read-out: MAGL Potency (Detection Method)): 6.82 to 7.30
pIC50 (human MAGL [1]; Method 5: Cayman Chemical MAGL enzyme, 25 nM, read-out: MAGL Potency (Detection Method)): > 7.30

A: degree to which MAGL enzymatic activity returned following washout (human MAGL [2]): 100
Compound: Cc1cn(C2CC3(C2)CN(C(=O)c2cc(O)ccc2F)C3)nc1-c1cc(F)ccc1Cl [Compound 520, {6-[3-(2-chloro-5-fluorophenyl)-4-methyl-1-pyrazolyl]-2-aza-2-spiro[3.3]heptyl}(2-fluoro-5-hydroxyphenyl) methanone]

pIC50 (human recombinant FAAH; [5]): < 5.00
pIC50 (human MAGL [1]; [6]): 6.30 to 6.82
Compound: (2-fluoro-5-hydroxyphenyl) (6-(3-methyl-1-(o-tolyl)-1H-pyrazol-5-yl)-2-azaspiro[3.3]hept-5-en-2-yl) methanone [Compound 120]

pIC50 (human recombinant FAAH; [5]): < 5.00
Compound: Cc1cc(C2CC3(C2)CN(C(=O)c2ccccc2F)C3)n(-c2ccccc2C)n1 [Compound 122, (2-fluorophenyl)(6-(3-methyl-1-(o-tolyl)-1H-pyrazol-5-yl)-2-azaspiro[3.3]heptan-2-yl)methanone]

pIC50 (human recombinant FAAH; [5]): < 5.00
Compound: Cc1cc(C2CC3(C2)CN(C(=O)c2cccc(O)c2)C3)n(-c2ccccc2C)n1 [Compound 125, (3-hydroxyphenyl)(6-(3-methyl-1-(o-tolyl)-1H-pyrazol-5-yl)-2-azaspiro[3.3]heptan-2-yl)methanone]

pIC50 (human recombinant FAAH; [5]): < 5.00
Compound: Cc1ccccc1-n1nc(C2CC3(C2)CN(C(=O)c2cc(O)ccc2F)C3)cc1C [Compound 117]

pIC50 (human recombinant FAAH; [5]): < 5.00
Compound: Cc1cc(C2CC3(C2)CN(C(=O)c2c(F)ccc(O)c2F)C3)n(-c2ccccc2C)n1 [Compound 127, (2,6-difluoro-3-hydroxyphenyl)(6-(3-methyl-1-(o-tolyl)-1H-pyrazol-5-yl)-2-azaspiro[3.3]heptan-2-yl)methanone]

A: degree to which MAGL enzymatic activity returned following washout (human MAGL [2]): 155
Compound: Cc1cnn(C2CC3(C2)CN(C(=O)c2cc(O)ccc2F)C3)c1-c1cc(F)ccc1Cl [Compound 519, {6-[5-(2-chloro-5-fluorophenyl)-4-methyl-1-pyrazolyl]-2-aza-2-spiro[3.3]heptyl}(2-fluoro-5-hydroxyphenyl) methanone]
